System: isolated rat adipocytes
Assay: Biological Activity in Isolated Rat Adipocytes (incorporation of 2-3H-glucose in total fat cell lipid)
Assay type: cell-based
Conditions: 2-3H-glucose incorporation in total fat cell lipid, 37° for 1 hr, mean±SEM
Method: Adipocytes were prepared from epididymal fat pads by a modification (Huber, supra) of the collagenase digestion procedure of Rodbell, supra. Krebs-Ringer-HEPES (KRH) buffer, pH 7.4, containing 4% bovine serum albumin and 0.55 mM glucose was used in all isolation and incubation steps.
Biological activity was assessed according to the method of Moody, A. J., Stan, M. A., Stan, M., and Glieman, J., Horm. Metab. Res. 6, 12-16 (1974) by monitoring the incorporation of 2-^3 H-glucose in total fat cell lipid. […] Radioactivity was determined in a Searle Isocap 300 liquid scintillation counter at an efficiency of approximately 30%. Blanks were prepared in which the scintillation fluid was added to the vials prior to the addition of cells. The average counts obtained from these vials were subtracted from those observed in all other samples.
Competitive binding curves and biological activity dose-response curves were analyzed using the PREFIT and ALLFIT programs [DeLean, A., Munson, P. J., and Rodbard, D., Am. J. Physiol. 235, E97-E102 (1978)] based on a four-parameter logistic model. These analyses indicated the concentration of insulin or proinsulin necessary to produce a half-maximal response, as well as the maximal and minimal values. All values are presented as the mean±SEM.

Substance | ED50
Human Insulin: human insulin, reference in the binding and activity assays | 5.32 ± 0.7 × 10^-11 M
Human Proinsulin: human proinsulin, starting material and reference; relative potency set to 1 | 1.24 ± 0.2 × 10^-8 M

Source: patent US4581165A, “Anti-diabetic compounds” (Eli Lilly and Company, priority 1984, dated 1986)
